# Data as given in patent US20230212202A1, “TREATMENT OF MGMT DEFICIENT CANCER WITH 2-FLUOROETHYL-SUBSTITUTED NITROSOUREAS AND OTHER COMPOUNDS” (YALE UNIVERSITY, priority 2021, published 2023).
# Columns and labels:
# [1] = test system: LN229 MGMT+/-, MMR+/- cells; assay: Micronuclei analysis; format: cell-based, human; details: 20 µM, 48 h
# Description: Micronuclei Analysis. An automated image analysis pipeline was developed by YCMD using InCell Analyzer software to quantify micronuclei formation. Nuclei and micronuclei were segmented based on Hoechst nucleic acid dye staining channel. A perinuclear margin was applied around the nuclei to approximate the extent of the cytoplasm and identify micronuclei associated with the parent nucleus. Cells with nuclei associated with at least 1 micronucleus were considered positive.
# [2] = test system: LN229 MGMT+/-, MMR+/- cells; assay: Cell cycle analysis; format: cell-based, human; details: 20 µM
# Method: Cell Cycle Analysis. Cell cycle analysis was performed using integrated Hoechst nucleic acid dye fluorescence intensity as previously described (51). Briefly, integrated Hoechst fluorescence intensity was log2 transformed and histograms from DMSO-treated cells were used to identify the centers of the 2 N and 4 N DNA peaks. These values were used to normalize the 2 N DNA peak to 1 and the 4 N DNA peak to 2. Cells were then classified by normalized log2 DNA content as G1 (0.75-1.25), S (1.25-1.75), or G2 (1.75-2.5) phase cells. The percentage of cells within each phase of the cell cycle was determined for each treatment condition. The three sets of Hoechst-stained cells corresponding to the three separate DNA foci stains were treated as three independent analyses.
# [3] = test system: LN229 MGMT+/-, MMR+/- cells; assay: Clonogenic survival assay; format: cell-based, human
# Method: Clonogenic Cell Survival Assay. Cells were trypsinized, washed, counted, and diluted in a medium containing various concentrations of drug. They were then immediately seeded in six-well plates in triplicate at three-fold dilutions, ranging from 9000 to 37 cells per well. Depending on colony size, these plates were kept in the incubator for 10 to 14 days. After incubation, colonies were washed in phosphate-buffered saline (PBS), stained with crystal violet, counted, and quantified.
# LN229 MGMT-/MMR- cells = assay: Short-term cell viability assay; format: cell-based, human; details: Homo sapiens, LN-229
# [4] = test system: linearized pUC19 plasmid DNA; assay: In vitro DNA cross-linking assay; format: biochemical; details: 100 µM, 6-36 hours
# Method: Plasmid Linearization Assay. To set up the linearization reactions, 20 units of EcoRI-HF (New England Biolabs) was mixed with 20 µg 2686 bp pUC19 vector DNA in CutSmart buffer (New England Biolabs), pH 7.9, in a total volume of 1000 µL for 30 min at 37° C. The CutSmart buffer contains 50 mM potassium acetate, 20 mM Tris acetate, 10 mM magnesium acetate, and 100 µg/mL BSA. The reacted DNA was then purified using PCR cleanup kit and quantified using the NanoDrop One (Thermo Fisher). The DNA was then stored at -20° C. before use in in vitro DNA cross-linking assays or melting temperature analysis.
# In Vitro DNA Cross-linking Assays. Linearized pUC19 DNA, prepared as described above, was used for in vitro DNA cross-linking assays. For each condition, 200 ng of linearized pUC19 DNA (15.4 µM base pairs) was incubated with the indicated concentration of drug in 20 µL. Drug stock concentrations were made in DMSO such that each reaction contained a fixed 5% DMSO concentration. Reactions were conducted in 100 mM Tris buffer (pH 7.4). Cisplatin (Sigma) and DMSO vehicle were used as positive and negative controls, respectively. Reactions were conducted between 3-96 h at 37° C. The DNA was stored at -80° C. until electrophoretic analysis. For gel electrophoresis, DNA concentration was preadjusted to 10 ng/µL. […]
compound,measurement,setting,value
NC(=O)c1ncn2c(=O)n(CCF)nnc12 [KL-50],micronuclei formation,[1],significant increase in micronuclei
same,G2 arrest,[2]; MGMT+/MMR+ cells,moderate G2 arrest
same,G2 arrest,[2]; MGMT-/MMR+ cells,increasing G2 arrest on progression from 24 to 48 h
same,G2 arrest,[2]; MGMT-/MMR- cells,attenuated G2 arrest
same,"clonogenic survival, MGMT+ cells",[3]; LN229 MGMT+ cells,minimal toxicity to MGMT+ cells at doses up to at least 200 µM
same,"clonogenic survival, MGMT- cells","[3]; LN229 MGMT- cells, MMR+/-","robust antitumor activity in MGMT- cells, independent of MMR status"
same,IC50,LN229 MGMT-/MMR- cells,~20 µM
same,ICLs in plasmid DNA,[4],"possessed ICLs, with delayed rates of formation relative to 12b"
